Measurements as given in EP1046401A2, “Fatty acid derivative labelled with a radioactive transition metal” (NIHON MEDI-PHYSICS Co., Ltd., priority 1999, dated 2000).

How the values were obtained:
liver slice [1] = assay: Survival of cells in the liver slice by lactic acid dehydrogenase (LDH) leaked into the medium; assay type: cell-based, rat; settings: inhibition group (2-bromooctanoic acid 100 µM), at the termination point of experiments; no significant difference from control group
Protocol: Under anesthetized, a rat was subjected to celiotomy and bleeded by perfusion via the portal vein with 20 mM of tris-HCl buffer solution (containing 100 mM of potassium chloride, 5 mM of magnesium chloride, 5 mM of potassium dihydrogen phosphate, pH 7.4) which is saturated with O2/CO2 (95/5) gas. Then, the liver was excised and pieces of liver slice having the thickness of 300 µm were prepared by using Stadie, Riggs type of slicer (manufactures by NATSUME SEISAKUSHO). After weighing, each pieces of liver slices were divided into two groups. One is inhibiting group which was preincubated in 20mM tris-HCl buffer solution at 37°C for 5 minutes, in the presence of 2-bromooctanoic acid (the final concentration: 100 µM) as β-oxidation inhibitor, and another one is control group which was preincubated in 20 mM tris-HCl buffer solution at 37°C for 5 minutes, without the inhibitor. Next, [^99mTc]MAMA-HA (3.7 MBq) was added, and incubation was carried out under bubbling O2/CO2 (95/5) gas at 37°C for 60 minutes with shaking 60 times per minute. […] The samples were analyzed by reversed phase HPLC under the same conditions employed in Determination of metabolites by in vivo test. Survival rate of the cells in the liver slice sample used in the test was determined by measuring the activity of lactic acid dehydrogenase (LDH) leaked into the culture medium. […]

liver slice [2] = assay: Determination of the metabolites by in vitro test (liver slice, reversed phase HPLC); assay type: in vitro ADME, rat; settings: 2-bromooctanoic acid added as inhibitor for the β-oxidation, liver slice incubation
Protocol: Under anesthetized, a rat was subjected to celiotomy and bleeded by perfusion via the portal vein with 20 mM of tris-HCl buffer solution (containing 100 mM of potassium chloride, 5 mM of magnesium chloride, 5 mM of potassium dihydrogen phosphate, pH 7.4) which is saturated with O2/CO2 (95/5) gas. Then, the liver was excised and pieces of liver slice having the thickness of 300 µm were prepared by using Stadie, Riggs type of slicer (manufactures by NATSUME SEISAKUSHO). After weighing, each pieces of liver slices were divided into two groups. […] The samples were analyzed by reversed phase HPLC under the same conditions employed in Determination of metabolites by in vivo test. Survival rate of the cells in the liver slice sample used in the test was determined by measuring the activity of lactic acid dehydrogenase (LDH) leaked into the culture medium. […]
In conducting the in vitro experiment for determining the metabolite more than 90% of the radioactivity in liver homogenate was extracted.
21.2 ± 3.0% of the whole radioactivity was eluted at the fraction retained at 17 minutes. […]

For `CCCCCCC(Br)C(=O)O` (centres unmarked) [2-bromooctanoic acid], which LDH activities (liver slice [1]) is on record?
The LDH activities was 3,285 ± 367 IU/L.

What about the “formation of [^99mTc]MAMA-BA from [^99mTc]MAMA-HA” value (liver slice [2]) of the same compound?
Its value is “inhibited completely”.
